Test system: PCA reaction induced by reaginic (IgE-like) antibodies to egg albumin
Experiment: inhibition of the passive cutaneous anaphylactic (PCA) reaction in rats induced by reaginic antibodies to egg albumin
Type: in vivo, rat
Procedure: Diethylcarbamazin, i.e. 1-diethylcarbamoyl-4-methylpiperazine, was used as a comparison compound. Specifically, tests were run as follows:
Serum containing reaginic (IgE-like) antibody to egg albumin was prepared by injecting rats intramuscularly with 0.1 ml of a solution of the antigen (10 mg/ml) in saline together with 0.5 ml of Bordetella pertussis vaccine (Behring; 2 × 10^10 organisms/ml). 9-14 Days later the animals were bled from the abdominal aorta; the serum was pooled and stored at -20° C until required. The titer of the serum, i.e. the highest dilution inducing passive cutaneous anaphylaxis (PCA) in the rat following a 48-hour latent period, was between 1:8 and 1:32. For use in these experiments the serum was diluted 1:24.
The animals were anesthetized with 2,2-dichloro-1,1-difluoroethyl-methyl ether, sold under the trademark Penthrane, and were sensitized by injecting 0.1 ml of the antiserum into the shaved abdominal flanks. After 48 hours for reaginic PCA, the animals were given an intravenous injection of 1 ml of saline solution containing 0.5% by weight of egg albumin and 0.25% by weight of Evans blue.
After having killed and exsanguinated the animals, the size in square millimeters and the intensity, in arbitary scores, of the resulting blue spot were determined. The product of these two parameters was used to determine the degree of the reaction and the degree of reaction with no active material was taken as the standard against which to measure % inhibition of the anaphylactic reaction.
6 Animals were used per dose level and for control.
In some instances the test material was injected intravenously (i.v.) immediately before the antigen, using a solution in water containing 0.5% HCl and 2% of dimethylformamide, and in other instances intraperitoneally (i.p.) 20 minutes before the antigen, using a suspension in water containing 1% of methylcellulose. The volume of the injection was varied to give the indicated dosage of active material.

[1] = 3 mg/kg i.p. 20 min. before antigen (ovalbumin 5 mg/animal i.v.)
[2] = 3 mg/kg i.v. immediately before antigen (ovalbumin 5 mg/animal i.v.)

Row | Structure (SMILES) | % Inhibition of PCA, i.p. (60 mg/kg i.p. 20 min. before antigen (ovalbumin 5 mg/animal i.v.)) | % Inhibition of PCA, i.v. (60 mg/kg i.v. immediately before antigen (ovalbumin 5 mg/animal i.v.)) | % Inhibition of PCA, i.p. [1] | % Inhibition of PCA, i.v. [2]
1 | CCN(CC)C(=O)N1CCN(C)CC1 [Diethylcarbamazin, 1-diethylcarbamoyl-4-methylpiperazine, reference compound] | 19% | 58% | – | –
2 | CCCCNc1ncnc2c1ncn2CCCN1CCN(c2ccccc2)CC1 [Ex. 1 (ab), N^6-n-butyl-9-[3-(4-phenyl-piperazino)-propyl]-adenine] | – | – | 69% | –
3 | CCNc1ncnc2c1ncn2CCCN1CCN(c2ccccc2)CC1 [Ex. 1 (d), N^6-ethyl-9-[3-(4-phenyl-piperazino)-propyl]-adenine] | – | – | 41% | 91%
4 | CNc1ncnc2c1ncn2CCCN1CCN(c2ccc(F)cc2)CC1 [Ex. 1 (q), N^6-methyl-9-{3-[4-(4-fluorophenyl)-piperazino]-propyl}-adenine] | – | – | 57% | –
5 | CNc1ncnc2c1ncn2CCCN1CCN(c2ccc(C)cc2)CC1 [Ex. 1 (y), N^6-methyl-9-{3-[4-(4-methylphenyl)-piperazino]-propyl}-adenine] | – | – | 33% | 61%
6 | CCCNc1ncnc2c1ncn2CCCN1CCN(c2ccccc2)CC1 [Ex. 2, N^6-n-Propyl-9-[3-(4-phenyl-piperazino)-propyl]-adenine] | – | – | 59% | 83%
